# Data taken from ChEMBL document CHEMBL1201862, “PubChem BioAssay data set” (2004).
#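 Following 48 hours of exposure in 96-well plates, responses at five concentrations were used to interpolate endpoints linearly. GI50 = concentration required for 50% inhibition of growth.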 Calls of active or inactive are those of the source. No stated cut-off is given here; in the data, active = GI50 up to about 1.1 µM and inactive = higher.
# How the values were obtained:
# Test in all cases: inhibition of tumour cell growth, NCI panel, 48 h
# SK-MEL-28 = test system: SK-MEL-28
# SNB-75 = test system: SNB-75
# OVCAR-4 = test system: OVCAR-4
# M14 = test system: M14
# OVCAR-8 = test system: OVCAR-8
# A549 = test system: A549
# COLO 205 = test system: COLO 205
# DU-145 = test system: DU-145
# BT-549 = test system: BT-549
# RXF 393 = test system: RXF 393
# MOLT-4 = test system: MOLT-4
# MDA-MB-231 = test system: MDA-MB-231
# T47D = test system: T47D
# MDA-MB-435 = test system: MDA-MB-435
# HL-60 = test system: HL-60
# A498 = test system: A498
# MDA-N = test system: MDA-N
# MCF7 = test system: MCF7
# UO-31 = test system: UO-31
# NCI-H460 = test system: NCI-H460
# SN12C = test system: SN12C
# HCC 2998 = test system: HCC 2998
# EKVX = test system: EKVX
# NCI-H522 = test system: NCI-H522
# SK-MEL-5 = test system: SK-MEL-5
# SF-539 = test system: SF-539
# SNB-19 = test system: SNB-19
# NCI/ADR-RES = test system: NCI/ADR-RES
# NCI-H23 = test system: NCI-H23
# UACC-62 = test system: UACC-62
# Hs-578T = test system: Hs-578T
# NCI-H226 = test system: NCI-H226
# KM12 = test system: KM12
# 786-0 = test system: 786-0
# SK-OV-3 = test system: SK-OV-3
# HT-29 = test system: HT-29
# LOX IMVI = test system: LOX IMVI
# SK-MEL-2 = test system: SK-MEL-2
# SF-295 = test system: SF-295
# PC-3 = test system: PC-3
# HOP-92 = test system: HOP-92
# TK-10 = test system: TK-10
# SR = test system: SR
# UACC-257 = test system: UACC-257
# CAKI-1 = test system: CAKI-1
# U-251 = test system: U-251
# HCT-116 = test system: HCT-116
# OVCAR-5 = test system: OVCAR-5
# CCRF-CEM = test system: CCRF-CEM
# ACHN = test system: ACHN
# HOP-62 = test system: HOP-62
# OVCAR-3 = test system: OVCAR-3
# IGROV-1 = test system: IGROV-1
# SW-620 = test system: SW-620
# SF-268 = test system: SF-268
# HCT-15 = test system: HCT-15
# K562 = test system: K562
# RPMI-8226 = test system: RPMI-8226
# Malme-3M = test system: Malme-3M
compound,measurement,setting,value
NNC(=O)CSc1nc2ccc(I)cc2c(=O)n1Cc1ccccc1,GI50,SK-MEL-28,28.4 µM (inactive)
same,GI50,SNB-75,22.9 µM (inactive)
same,GI50,OVCAR-4,19.5 µM (inactive)
same,GI50,M14,18.2 µM (inactive)
same,GI50,OVCAR-8,48.4 µM (inactive)
same,GI50,A549,24.3 µM (inactive)
same,GI50,COLO 205,21.5 µM (inactive)
same,GI50,DU-145,31.2 µM (inactive)
same,GI50,BT-549,23.2 µM (inactive)
same,GI50,RXF 393,13.1 µM (inactive)
same,GI50,MOLT-4,15 µM (inactive)
same,GI50,MDA-MB-231,14.3 µM (inactive)
same,GI50,T47D,22.5 µM (inactive)
same,GI50,MDA-MB-435,35.2 µM (inactive)
same,GI50,HL-60,20.6 µM (inactive)
same,GI50,A498,14.2 µM (inactive)
same,GI50,MDA-N,31.8 µM (inactive)
same,GI50,MCF7,22.2 µM (inactive)
same,GI50,UO-31,15.9 µM (inactive)
same,GI50,NCI-H460,18.8 µM (inactive)
same,GI50,SN12C,21.3 µM (inactive)
same,GI50,HCC 2998,16.8 µM (inactive)
same,GI50,EKVX,13.1 µM (inactive)
same,GI50,NCI-H522,14.9 µM (inactive)
same,GI50,SK-MEL-5,17.2 µM (inactive)
same,GI50,SF-539,19.7 µM (inactive)
same,GI50,SNB-19,23.3 µM (inactive)
same,GI50,NCI/ADR-RES,40.6 µM (inactive)
same,GI50,NCI-H23,31.5 µM (inactive)
same,GI50,UACC-62,18.6 µM (inactive)
same,GI50,Hs-578T,20.9 µM (inactive)
same,GI50,NCI-H226,18.8 µM (inactive)
same,GI50,KM12,23.5 µM (inactive)
same,GI50,786-0,15.6 µM (inactive)
same,GI50,SK-OV-3,15.7 µM (inactive)
same,GI50,HT-29,21.7 µM (inactive)
same,GI50,LOX IMVI,15.6 µM (inactive)
same,GI50,SK-MEL-2,20.4 µM (inactive)
same,GI50,SF-295,21.9 µM (inactive)
same,GI50,PC-3,22.8 µM (inactive)
same,GI50,HOP-92,30.5 µM (inactive)
same,GI50,TK-10,16.9 µM (inactive)
same,GI50,SR,26.5 µM (inactive)
same,GI50,UACC-257,19.9 µM (inactive)
same,GI50,CAKI-1,15.3 µM (inactive)
same,GI50,U-251,20.3 µM (inactive)
same,GI50,HCT-116,18.4 µM (inactive)
same,GI50,OVCAR-5,20.4 µM (inactive)
same,GI50,CCRF-CEM,3.89 µM (inactive)
same,GI50,ACHN,18.7 µM (inactive)
same,GI50,HOP-62,19 µM (inactive)
same,GI50,OVCAR-3,18.4 µM (inactive)
same,GI50,IGROV-1,24.4 µM (inactive)
same,GI50,SW-620,33 µM (inactive)
same,GI50,SF-268,17.5 µM (inactive)
same,GI50,HCT-15,36.6 µM
same,GI50,K562,26.1 µM (inactive)
same,GI50,RPMI-8226,21.6 µM (inactive)
NC(=O)C1CCCN1C(=O)C(Cc1c[nH]cn1)NC(=O)C1CCCC1 (stereo not drawn),GI50,SK-MEL-28,> 100 µM (inactive)
same,GI50,SNB-75,> 100 µM (inactive)
same,GI50,OVCAR-4,> 100 µM (inactive)
same,GI50,M14,> 100 µM (inactive)
same,GI50,OVCAR-8,> 100 µM (inactive)
same,GI50,A549,> 100 µM (inactive)
same,GI50,COLO 205,> 100 µM (inactive)
same,GI50,DU-145,> 100 µM (inactive)
same,GI50,BT-549,> 100 µM (inactive)
same,GI50,RXF 393,> 100 µM (inactive)
same,GI50,MOLT-4,> 100 µM (inactive)
same,GI50,MDA-MB-231,> 100 µM (inactive)
same,GI50,T47D,> 100 µM (inactive)
same,GI50,MDA-MB-435,> 100 µM (inactive)
same,GI50,HL-60,> 100 µM (inactive)
same,GI50,A498,23.4 µM (inactive)
same,GI50,MDA-N,> 100 µM (inactive)
same,GI50,MCF7,> 100 µM (inactive)
same,GI50,UO-31,> 100 µM (inactive)
same,GI50,NCI-H460,> 100 µM (inactive)
same,GI50,SN12C,> 100 µM (inactive)
same,GI50,HCC 2998,> 100 µM (inactive)
same,GI50,EKVX,> 100 µM (inactive)
same,GI50,NCI-H522,> 100 µM (inactive)
same,GI50,SK-MEL-5,> 100 µM (inactive)
same,GI50,SNB-19,> 100 µM (inactive)
same,GI50,NCI/ADR-RES,> 100 µM (inactive)
same,GI50,NCI-H23,> 100 µM (inactive)
same,GI50,UACC-62,> 100 µM (inactive)
same,GI50,Malme-3M,> 100 µM (inactive)
same,GI50,Hs-578T,> 100 µM (inactive)
same,GI50,NCI-H226,> 100 µM (inactive)
same,GI50,KM12,> 100 µM (inactive)
same,GI50,786-0,> 100 µM (inactive)
same,GI50,SK-OV-3,> 100 µM (inactive)
same,GI50,HT-29,> 100 µM (inactive)
same,GI50,LOX IMVI,> 100 µM (inactive)
same,GI50,SF-295,> 100 µM (inactive)
same,GI50,PC-3,> 100 µM (inactive)
same,GI50,HOP-92,> 100 µM (inactive)
same,GI50,TK-10,> 100 µM (inactive)
same,GI50,SR,> 100 µM (inactive)
same,GI50,CAKI-1,> 100 µM (inactive)
same,GI50,U-251,> 100 µM (inactive)
same,GI50,HCT-116,> 100 µM (inactive)
same,GI50,OVCAR-5,> 100 µM (inactive)
same,GI50,CCRF-CEM,> 100 µM (inactive)
same,GI50,ACHN,> 100 µM (inactive)
same,GI50,HOP-62,> 100 µM (inactive)
same,GI50,OVCAR-3,> 100 µM (inactive)
same,GI50,IGROV-1,> 100 µM (inactive)
same,GI50,SW-620,> 100 µM (inactive)
same,GI50,HCT-15,> 100 µM
same,GI50,K562,> 100 µM (inactive)
same,GI50,RPMI-8226,> 100 µM (inactive)
